# Results reported in US20170334899A1, “AMINO-SUBSTITUTED ISOTHIAZOLES” (Bayer Pharma Aktiengesellschaft, priority 2014, published 2017).
# Where two headings read alike, the source gives them in different places.
# Experiments:
# [1] = target: T1, catalytic domain of human Bub1 (amino acids 704-1085) (Homo sapiens, UniProt O43683); assay: Bub1 kinase assay (TR-FRET); assay type: biochemical; details: 10 μM ATP, avg, read-out: Bub1 avg (IC50 [mol/l])
# T1 construct: catalytic domain of human Bub1 (amino acids 704-1085); His6 (N); made in house; host or cells: insect cells (Hi5)
# T1 sequence (O43683 704-1085): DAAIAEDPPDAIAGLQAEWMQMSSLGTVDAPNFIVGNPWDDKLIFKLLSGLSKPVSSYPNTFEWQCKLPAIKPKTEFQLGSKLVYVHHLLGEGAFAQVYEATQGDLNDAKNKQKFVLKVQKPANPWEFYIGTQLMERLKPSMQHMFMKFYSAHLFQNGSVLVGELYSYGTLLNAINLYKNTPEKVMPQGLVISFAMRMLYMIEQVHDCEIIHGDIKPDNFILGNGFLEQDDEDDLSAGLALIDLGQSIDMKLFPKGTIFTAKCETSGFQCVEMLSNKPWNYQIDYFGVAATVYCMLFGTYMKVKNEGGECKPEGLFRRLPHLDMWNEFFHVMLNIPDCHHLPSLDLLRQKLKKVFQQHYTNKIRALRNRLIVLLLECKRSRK
# Source text: Bub1-inhibitory activity of compounds of the present invention was quantified employing the Bub1 TR-FRET assay as described in the following paragraphs.
# N-terminally His6-tagged recombinant catalytic domain of human Bub1 (amino acids 704-1085), expressed in insect cells (Hi5) and purified by Ni-NTA affinity chromatography and subsequent size exclusion chromatography, was used as enzyme. As substrate for the kinase reaction the biotinylated peptide biotin-Ahx-VLLPKKSFAEPG (C-terminus in amid form) was used which can be purchased e.g. form the company Biosyntan (Berlin, Germany).
# For the assay 50 nl of a 100fold concentrated solution of the test compound in DMSO was pipetted into a black low volume 384well microtiter plate (Greiner Bio-One, Frickenhausen, Germany), 2 μl of a solution of Bub1 in aqueous assay buffer [50 mM Tris/HCl pH 7.5, 10 mM magnesium chloride (MgCl2), 200 mM potassium chloride (KCl), 1.0 mM dithiothreitol (DTT), 0.1 mM sodium ortho-vanadate, 1% (v/v) glycerol, 0.01% (w/v) bovine serum albumine (BSA), 0.005% (v/v) Trition X-100 (Sigma), 1× Complete EDTA-free protease inhibitor mixture (Roche)] were added and the mixture was incubated for 15 min at 22° C. to allow pre-binding of the test compounds to the enzyme before the start of the kinase reaction. Then the kinase reaction was started by the addition of 3 μl of a solution of adenosine-tri-phosphate (ATP, 16.7 μM=>final conc. in the 5 μl assay volume is 10 μM) and substrate (1.67 μM=>final conc. in the 5 μl assay volume is 1 μM) in assay buffer and the resulting mixture was incubated for a reaction time of 60 min at 22° C. The concentration of Bub1 was adjusted depending of the activity of the enzyme lot and was chosen appropriate to have the assay in the linear range, typical concentrations were in the range of 200 ng/ml. The reaction was stopped by the addition of 5 μl of a solution of TR-FRET detection reagents (0.2 μM streptavidine-XL665 [Cisbio Bioassays, Codolet, France] and 1 nM anti-phosho-Serine antibody [Merck Millipore, cat. #35-001] and 0.4 nM LANCE EU-W1024 labeled anti-mouse IgG antibody [Perkin-Elmer, product no. AD0077, as an alternative a Terbium-cryptate-labeled anti-mouse IgG antibody from Cisbio Bioassays can be used]) in an aqueous EDTA-solution (50 mM EDTA, 0.2% (w/v) bovine serum albumin in 100 mM HEPES pH 7.5).
# The resulting mixture was incubated 1 h at 22° C. to allow the formation of complex between the phosphorylated biotinylated peptide and the detection reagents. Subsequently the amount of phosphorylated substrate was evaluated by measurement of the resonance energy transfer from the Eu-chelate to the streptavidine-XL. Therefore, the fluorescence emissions at 620 nm and 665 nm after excitation at 350 nm was measured in a TR-FRET reader, e.g. a Rubystar or Pherastar (both from BMG Labtechnologies, Offenburg, Germany) or a Viewlux (Perkin-Elmer). The ratio of the emissions at 665 nm and at […] was taken as the measure for the amount of phosphorylated substrate. The data were normalised (enzyme reaction without inhibitor=0% inhibition, all other assay components but no enzyme=100% inhibition).
# [2] = system: human cervical tumor cell line HeLa (ATCC CCL-2); assay: SAC-Formation - Paclitaxel-Induced Assay; assay type: cell-based; details: 24 h, HeLa cells, paclitaxel 0.05 μM, test range 0.005 μM-20 μM, read-out: IC50 [mol/l] SAC-Formation - Paclitaxel-Induced Assay
# Summary of the method: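 HeLa cells incubated overnight at 37° C, then given paclitaxel (0.05 μM final) plus test compound (0.005–20 μM, 0.5% DMSO) together for 24 h at 37° C. Fixed cells stained for phospho-histone H3 Ser10 (mitotic cells) and Hoechst 33342 (cell count); imaging-derived mitotic index fitted by four-parameter Hill equation.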
Structure (SMILES),IC50 [1] [µM],"IC50 ([2]; Homo sapiens, HeLa) [µM]",IC50 [2] [µM]
"Cc1nsc(Nc2cnc(C(F)(F)F)cn2)c1C(=O)Nc1ccc(OC[C@H]2CCN(CC(F)(F)F)C2)nc1 (racemic) [Example 133, 3-Methyl-N-(6-{[(SR)-1-(2,2,2-trifluoroethyl)pyrrolidin-3-yl]methoxy}pyridin-3-yl)-5-{[5-(trifluoromethyl)pyrazin-2-yl]amino}-1,2-thiazole-4-carboxamide]",> 20,–,–
"CC(=O)N1CCC(Oc2ccc(NC(=O)c3c(C)nsc3Nc3cnc(C(F)(F)F)cn3)cn2)CC1 [Example 11, N-{6-[(1-Acetylpiperidin-4-yl)oxy]pyridin-3-yl}-3-methyl-5-{[5-(trifluoromethyl)-pyrazin-2-yl]amino}-1,2-thiazole-4-carboxamide]",≥ 20,0.15,–
"Cc1nsc(Nc2cnc(C(F)(F)F)cn2)c1C(=O)Nc1ccc(C(=O)OC(C)(C)C)cc1 [Example 96, tert-Butyl 4-{[(3-methyl-5-{[5-(trifluoromethyl)pyrazin-2-yl]amino}-1,2-thiazol-4-yl)carbonyl]amino}benzoate]",≥ 20,0.039,–
"Cc1nsc(Nc2cnc(C(F)(F)F)cn2)c1C(=O)Nc1ccc(C(=O)O)cc1 [Example 97, 4-{[(3-Methyl-5-{[5-(trifluoromethyl)pyrazin-2-yl]amino}-1,2-thiazol-4-yl)carbony]-amino}benzoic acid]",2.9,20,–
"Cc1nsc(Nc2cnc3ccccc3n2)c1C(=O)Nc1cccc(C(=O)NCC(=O)O)c1 [Example 99, N-[3-({[3-Methyl-5-(quinoxalin-2-ylamino)-1,2-thiazol-4-yl]carbonyl}amino)benzoy]-glycine]",2.7,20,–
"COC(=O)CNC(=O)c1cccc(NC(=O)c2c(C)nsc2Nc2cnc3ccccc3n2)c1 [Example 100, Methyl N-[3-({[3-methyl-5-(quinoxalin-2-ylamino)-1,2-thiazol-4-yl]carbonyl}amino)-benzoyl]glycinate]",9,20,–
"Cc1nsc(Nc2cnc3ccccc3n2)c1C(=O)Nc1cccc(C(=O)N2CCNCC2)c1 [Example 101, 3-Methyl-N-[3-(piperazin-1-ylcarbonyl)phenyl]-5-(quinoxalin-2-ylamino)-1,2-thiazole-4-carboxamide]",7.6,20,–
"Cc1nsc(Nc2cnc3ccccc3n2)c1C(=O)Nc1cccc(C(=O)N[C@@H](CCC(N)=O)C(=O)O)c1 [Example 103, N^2-[3-({[3-Methyl-5-(quinoxalin-2-ylamino)-1,2-thiazol-4-yl]carbonyl}amino)-benzoyl]glutamine]",≥ 20,20,–
"Cc1nsc(Nc2cnc3ccccc3n2)c1C(=O)Nc1cccc(C(=O)N[C@H](C(=O)O)[C@@H](C)OC(C)(C)C)c1 [Example 104, O-tert-Butyl-N-[3-({[3-methyl-5-(quinoxalin-2-ylamino)-1,2-thiazol-4-yl]-carbonyl}amino)benzoyl]threonine]",≥ 20,3.2,–

# Second part, the molecule after the results:
IC50 [1] [µM],"IC50 ([2]; Homo sapiens, HeLa) [µM]",IC50 [2] [µM],Structure (SMILES)
≥ 20,19,–,"Cc1nsc(Nc2cnc(C(F)(F)F)cn2)c1C(=O)Nc1ccc(OC2CCNCC2)nc1 [Example 6, 3-Methyl-N-[6-(piperidin-4-yloxy)pyridin-3-yl]-5-{[5-(trifluoromethyl)pyrazin-2-yl]amino}-1,2-thiazole-4-carboxamide]"
≥ 20,0.77,–,"Cc1nsc(Nc2cnc(C(F)(F)F)cn2)c1C(=O)Nc1ccc(OC2CCN(CCF)CC2)nc1 [Example 7, N-(6-{[1-(2-Fluoroethyl)piperidin-4-yl]oxy}pyridin-3-yl)-3-methyl-5-{[5-(trifluoromethyl)pyrazin-2-yl]amino}-1,2-thiazole-4-carboxamide]"
≥ 20,1.5,–,"Cc1nsc(Nc2cnc(C(F)(F)F)cn2)c1C(=O)Nc1ccc(OC2CCN(CC(F)F)CC2)nc1 [Example 8, N-(6-{[1-(2,2-Difluoroethyl)piperidin-4-yl]oxy}pyridin-3-yl)-3-methyl-5-{[5-(trifluoromethyl)pyrazin-2-yl]amino}-1,2-thiazole-4-carboxamide]"
≥ 20,0.36,–,"Cc1nsc(Nc2cnc(C(F)(F)F)cn2)c1C(=O)Nc1ccc(OC2CCN(CC(F)(F)F)CC2)nc1 [Example 9, -Methyl-N-(6-{[1-(2,2,2-trifluoroethyl)piperidin-4-yl]oxy}pyridin-3-yl)-5-{[5-(trifluoromethyl)pyrazin-2-yl]amino}-1,2-thiazole-4-carboxamide]"
≥ 20,–,0.34,"Cc1nsc(Nc2cnc(C(F)(F)F)cn2)c1C(=O)Nc1ccc(OC2CCN(CCC(F)(F)F)CC2)nc1 [Example 10, 3-Methyl-5-{[5-(trifluoromethyl)pyrazin-2-yl]amino}-N-(6-{[1-(3,3,3-trifluoropropyl)-piperidin-4-yl]oxy}pyridin-3-yl)-1,2-thiazole-4-carboxamide]"
≥ 20,0.23,–,"Cc1nsc(Nc2cncc(C(F)(F)F)n2)c1C(=O)Nc1ccc(OC2CCN(C(=O)OC(C)(C)C)CC2)nc1 [Example 12, tert-Butyl 4-[(5-{[(3-methyl-5-{[6-(trifluoromethyl)pyrazin-2-yl]amino}-1,2-thiazol-4-yl)carbonyl]amino}pyridin-2-yl)oxy]piperidine-1-carboxylate]"
≥ 20,0.0079,–,"Cc1nsc(Nc2ccc(C#N)cn2)c1C(=O)Nc1ccc(C(=O)OC(C)(C)C)cc1 [Example 98, tert-Butyl 4-[({5-[(5-cyanopyridin-2-yl)amino]-3-methyl-1,2-thiazol-4-yl}carbonyl)-amino]benzoate]"
19,7.5,–,"Cc1nsc(Nc2cnc3ccccc3n2)c1C(=O)Nc1cccc(C(=O)N2CCN(C)CC2)c1 [Example 102, 3-Methyl-N-{3-[(4-methylpiperazin-1-yl)carbonyl]phenyl}-5-(quinoxalin-2-ylamino)-1,2-thiazole-4-carboxamide]"
19,20,–,"Cc1nsc(Nc2cnc3ccccc3n2)c1C(=O)Nc1cccc(C(=O)N[C@H](C(=O)O)[C@@H](C)O)c1 [Example 105, N-[3-({[3-methyl-5-(quinoxalin-2-ylamino)-1,2-thiazol-4-yl]carbonyl}amino)-benzoyl]threonine]"
≥ 20,0.13,–,"Cc1noc(-c2cccc(NC(=O)c3c(C)nsc3Nc3cnc4ccccc4n3)c2)n1 [Example 106, 3-Methyl-N-[3-(3-methyl-1,2,4-oxadiazol-5-yl)phenyl]-5-(quinoxalin-2-ylamino)-1,2-thiazole-4-carboxamide]"
> 20,–,–,"Cc1nsc(Nc2cnc(C(F)(F)F)cn2)c1C(=O)Nc1ccc(OC[C@H]2CCN(CC(F)F)C2)nc1 [Example 132, N-(6-{[(3S)-1-(2,2-difluoroethyl)pyrrolidin-3-yl]methoxy}pyridin-3-yl)-3-methyl-5-{[5-(trifluoromethyl)pyrazin-2-yl]amino}-1,2-thiazole-4-carboxamide]"
> 20,–,–,"Cc1nsc(Nc2cnc(C(F)(F)F)cn2)c1C(=O)Nc1ccc(OC[C@H]2CCN(CCC(F)(F)F)C2)nc1 [Example 134, 3-Methyl-5-{[5-(trifluoromethyl)pyrazin-2-yl]amino}-N-(6-{[(3S)-1-(3,3,3-trifluoropropyl)pyrrolidin-3-yl]methoxy}pyridin-3-yl)-1,2-thiazole-4-carboxamide]"
